Experiments:
[1] = system: passive cutaneous anaphylactic reaction; experiment: Passive cutaneous anaphylactic reaction test in rats (oral); format: in vivo; details: for oral activity relative to reference compounds RCB and RCC: times as active as RCB and RCC
Description: A.2. Passive cutaneous anaphylactic reaction test in rats (oral)

[2] = system: passive cutaneous anaphylactic reaction; experiment: Passive cutaneous anaphylactic reaction test in rats (intravenous); format: in vivo; details: relative to reference compound RCA (= 1)
Description: A.1. Passive cutaneous anaphylactic reaction test in rats (intravenous)

[3] = Acute intravenous toxicity in mice; details: mouse, in vivo, triethanolamine salt, aqueous solution, observed 7 days
Procedure: T.2. Acute intravenous toxicity in mice
Mice were each treated intravenously with an aqueous solution of the triethanolamine salt of one of the compounds of formula IV, and they were observed during the next 7 days. The LD50 figures obtained (doses lethal to 50% of mice tested) are shown below in Table III, expressed in mg/kg animal body weight.
The aqueous solutions used were prepared as follows:- A mixture of the test compound and water was treated gradually with triethanolamine until complete solution occurred. The solution was then diluted with water to a concentration of either 1% w/v or 2% w/v. Various volumes of these solutions were then administered to the mice.

[4] = Acute oral toxicity in mice; details: mouse, in vivo, observed 3 days
Description: T.1. Acute oral toxicity in mice
Mice were each treated orally with one of the compounds of formula IV, and they were observed during the next 3 days. The LD50 figures obtained (doses lethal to 50% of mice tested) are shown in Table II, expressed in mg/kg animal body weight.

beagle dogs = experiment: Emetic activity in dogs; format: in vivo; details: four beagle dogs, oral gelatine capsules, observed at least 2.5 hours
Description: The emetic activity in dogs of test compound A was compared with that of the reference compound RCA.
Four beagle dogs, each of approximately 12 kg body weight, were starved overnight and then were given orally gelatine capsules containing either test compound A or RCA.
The same four animals were used to test both compounds.

Compound	Relative Activity [2]	further results
CCCOc1ccc(S(=O)(=O)CCC)cc1-c1nc2[nH]nnc2c(=O)[nH]1 [RCC, 2-(2-propoxy-5-propylsulphonylphenyl)-8-azapurin-6-one, reference compound]		oral activity of RCB and RCC compared with each other [1]: approximately equiactive orally
CCCOc1ccc(NC=C(C(C)=O)C(=O)OCC)cc1-c1nc2[nH]nnc2c(=O)[nH]1 [D, 2-[5-(2-acetyl-2-ethoxycarbonylvinylamino)-2-propoxyphenyl]-8-azapurin-6-one]	10	LD50 at 168 h ([3]; test solution 2% w/v): 270 mg/kg
CCCNC(=O)Nc1ccc(OCCC)c(-c2nc3[nH]nnc3c(=O)[nH]2)c1 [Compound P, 2-[2-propoxy-5-(3-propylureido)phenyl]-8-azapurin-6-one]	2	
CCCNC(=S)Nc1ccc(OCCC)c(-c2nc3[nH]nnc3c(=O)[nH]2)c1 [Compound R, 2-[2-propoxy-5-(3-propyl-2-thioureido)phenyl]-8-azapurin-6-one]	0.2	LD50 at 72 h [4]: > 1000 mg/kg
CCCOc1ccc(N=NC(C(=O)OCC)C(=O)OCC)cc1-c1nc2[nH]nnc2c(=O)[nH]1 [K, 2-[5-{bis(ethoxycarbonyl)methylazo}-2-propoxyphenyl]-8-azapurin-6-one]	2.5	LD50 at 168 h ([3]; test solution 2% w/v): 255 mg/kg
CCCOc1ccc(NC2=C(C(=O)OCC)CCC2)cc1-c1nc2[nH]nnc2c(=O)[nH]1 [Compound U, 2-[5-(2-ethoxycarbonylcyclopent-1-enylamino)-2-propoxyphenyl]-8-azapurin-6-one]	5	LD50 at 168 h ([3]; test solution 2% w/v): 220 mg/kg
COc1ccc(NC=C(C(C)=O)C(C)=O)cc1-c1nc2[nH]nnc2c(=O)[nH]1 [F, 2-[5-(2,2-diacetylvinylamino)-2-methoxyphenyl]-8-azapurin-6-one]	5	
CCCOc1ccc(NC=C(C(C)=O)C(C)=O)cc1-c1nc2[nH]nnc2c(=O)[nH]1 [Compound B, 2-[5-(2,2-diacetylvinylamino)-2-propoxyphenyl]-8-azapurin-6-one]	50	LD50 at 168 h ([3]; test solution 1% w/v): 350 mg/kg
CCCOc1ccc(NC=C(C(=O)OC)C(=O)OC)cc1-c1nc2[nH]nnc2c(=O)[nH]1 [Compound G, 2-[5-{2,2-bis(methoxycarbonyl)vinylamino}-2-propoxyphenyl]-8-azapurin-6-one]	50	LD50 at 168 h ([3]; test solution 2% w/v): 280 mg/kg
CCCOc1ccc(NC(N)=O)cc1-c1nc2[nH]nnc2c(=O)[nH]1 [Compound S, 2-(2-propoxy-5-ureidophenyl)-8-azapurin-6-one]	5	
CCCOc1ccc(NC(=S)NC)cc1-c1nc2[nH]nnc2c(=O)[nH]1 [Compound Q, 2-[5-(3-methyl-2-thioureido)-2-propoxyphenyl]-8-azapurin-6-one]	10	
CCCOc1ccc(C(=O)N(CC)CC)cc1-c1nc2[nH]nnc2c(=O)[nH]1 [Compound V, 2-(5-N,N-diethylcarbamoyl-2-propoxyphenyl)-8-azapurin-6-one]	3	
CCCOc1ccc(C(N)=O)cc1-c1nc2[nH]nnc2c(=O)[nH]1 [Compound M, 2-(5-carbamoyl-2-propoxyphenyl)-8-azapurin-6-one]	10	
CCOC(=O)C(=CNc1ccc(OC)c(-c2nc3[nH]nnc3c(=O)[nH]2)c1)C(=O)OCC [Compound E, 2-[5-{2,2-bis(ethoxycarbonyl)vinylamino}-2-methoxyphenyl]-8-azapurin-6-one]	5	LD50 at 72 h [4]: > 1000 mg/kg; LD50 at 168 h ([3]; test solution 1% w/v): 320 mg/kg
CCCOc1ccc(N/C(=C\C(=O)OC)C(=O)OC)cc1-c1nc2[nH]nnc2c(=O)[nH]1 [Compound H, (Z)-2-[5-{1,2-bis(methoxycarbonyl)vinylamino}-2-propoxyphenyl]-8-azapurin-6-one]	15	LD50 at 168 h ([3]; test solution 2% w/v): 410 mg/kg
CCCOc1ccc(-c2nnn[nH]2)cc1-c1nc2[nH]nnc2c(=O)[nH]1 [Compound T, 2-[2-propoxy-5-(tetrazol-5-yl)phenyl]-8-azapurin-6-one]	2	
CCCOc1ccc(C(=O)NC(C)(C)C)cc1-c1nc2[nH]nnc2c(=O)[nH]1 [Compound N, 2-(5-N-t-butylcarbamoyl-2-propoxyphenyl)-8-azapurin-6-one]	50	LD50 at 72 h [4]: > 1000 mg/kg
CCCOc1ccc(NC=C(C#N)C(=O)OCC)cc1-c1nc2[nH]nnc2c(=O)[nH]1 [C, 2-[5-(2-cyano-2-ethoxycarbonylvinylamino)-2-propoxyphenyl]-8-azapurin-6-one]	10	oral activity relative to reference compounds RCB and RCC [1]: over 2.5 times; LD50 at 168 h ([3]; test solution 2% w/v): 290 mg/kg
CCCOc1ccc(N=NC(C(C)=O)C(C)=O)cc1-c1nc2[nH]nnc2c(=O)[nH]1 [J, 2-[5-(2,4-dioxopent-3-ylazo)-2-propoxyphenyl]-8-azapurin-6-one]	10	LD50 at 72 h [4]: > 1000 mg/kg
CCCOc1ccc(NC=C(C(=O)OCC)C(=O)OCC)cc1-c1nc2[nH]nnc2c(=O)[nH]1 [Compound A, 2-[5-{2,2-bis(ethoxycarbonyl)vinylamino}-2-propoxyphenyl]-8-azapurin-6-one]	5	vomiting (emetic activity) (beagle dogs; 200 mg/kg): caused vomiting in none of the four dogs; oral activity relative to reference compounds RCB and RCC [1]: over 5 times
CCCOc1ccc(NC(=O)NC(C)C)cc1-c1nc2[nH]nnc2c(=O)[nH]1 [Compound O, 2-[2-propoxy-5-(3-isopropylureido)phenyl]-8-azapurin-6-one]	30	LD50 at 72 h [4]: > 1000 mg/kg
CCCOc1ccc(C(=O)N(C)C(C)C)cc1-c1nc2[nH]nnc2c(=O)[nH]1 [W, 2-(5-N-methyl-N-isopropylcarbamoyl-2-propoxyphenyl)-8-azapurin-6-one]	5	
CCCOc1ccc(C#N)cc1-c1nc2[nH]nnc2c(=O)[nH]1 [Compound L, 2-(5-cyano-2-propoxyphenyl)-8-azapurin-6-one]	1	
COc1ccc(NC(C)=CC(C)=O)cc1-c1nc2[nH]nnc2c(=O)[nH]1 [Compound I, 2-[5-(1-acetylprop-1-en-2-ylamino)-2-methoxyphenyl]-8-azapurin-6-one]	5	LD50 at 168 h ([3]; test solution 1% w/v): 470 mg/kg
CCCOc1ccccc1-c1nc2nn[nH]c2c(=O)[nH]1 [RCA, 2-(2-propoxyphenyl)-8-azapurin-6-one, reference compound]	1	vomiting (emetic activity) (beagle dogs; 100 mg/kg): caused vomiting in all four dogs
CCCOc1ccc(S(=O)(=O)N(C)C(C)C)cc1-c1nc2[nH]nnc2c(=O)[nH]1 [RCB, 2-[2-propoxy-5-(N-methyl-N-isopropylsulphamoyl)-phenyl]-8-azapurin-6-one, reference compound]		oral activity of RCB and RCC compared with each other [1]: approximately equiactive orally

Reference: US4167568A, “8-Azapurin-6-one derivatives” (May & Baker Limited, priority 1976, dated 1979)
